Measured values as given in the NIST ThermoML archive (doi:10.1016/j.fluid.2004.09.013).
Numbers after ± are expanded uncertainties.

Conditions: for mass density: Fluid (supercritical or subcritical phases), Vibrating tube method; for vapor or sublimation pressure: Liquid

C=CCC [1-butene]
Conditions	mass density [kg/m3]
388.24 K, 35013 kPa	554.66 ± 1.3
388.24 K, 40001 kPa	562.62 ± 1.4
393.24 K, 3099 kPa	433.35 ± 0.92
393.24 K, 4988 kPa	452.98 ± 0.96
393.24 K, 10001 kPa	483.54 ± 1
393.24 K, 14990 kPa	503.16 ± 1.1
393.24 K, 20005 kPa	518.2 ± 1.2
393.24 K, 24996 kPa	530.47 ± 1.2
393.24 K, 30000 kPa	540.98 ± 1.3
393.24 K, 35004 kPa	550.18 ± 1.3
393.24 K, 39996 kPa	558.42 ± 1.4
398.24 K, 3328 kPa	420.6 ± 0.9
398.24 K, 4984 kPa	441.24 ± 0.94
398.24 K, 9995 kPa	475.63 ± 1
398.24 K, 14988 kPa	496.67 ± 1.1
398.24 K, 20004 kPa	512.53 ± 1.2
398.24 K, 24995 kPa	525.32 ± 1.2
398.24 K, 29999 kPa	536.22 ± 1.3
398.24 K, 34991 kPa	545.71 ± 1.3
398.24 K, 40002 kPa	554.2 ± 1.4
403.24 K, 3570 kPa	406.72 ± 0.89
403.24 K, 4981 kPa	428.43 ± 0.92
403.24 K, 9984 kPa	467.46 ± 1
403.24 K, 14984 kPa	490.08 ± 1.1
403.24 K, 19994 kPa	506.77 ± 1.2
403.24 K, 24991 kPa	520.14 ± 1.2
403.24 K, 29990 kPa	531.44 ± 1.3
403.24 K, 34986 kPa	541.24 ± 1.3
403.24 K, 40010 kPa	549.99 ± 1.4
408.24 K, 3826 kPa	391.44 ± 0.88
408.24 K, 4981 kPa	414.13 ± 0.91
408.24 K, 9995 kPa	459.14 ± 0.99
408.24 K, 14983 kPa	483.4 ± 1.1
408.24 K, 19998 kPa	501 ± 1.1
408.24 K, 24993 kPa	514.95 ± 1.2
408.24 K, 29994 kPa	526.66 ± 1.3
408.24 K, 34991 kPa	536.79 ± 1.3
408.24 K, 40009 kPa	545.77 ± 1.4
413.24 K, 4097 kPa	374.62 ± 0.89
413.24 K, 4986 kPa	397.78 ± 0.91
413.24 K, 9991 kPa	450.43 ± 0.98
413.24 K, 14983 kPa	476.61 ± 1.1
413.24 K, 20002 kPa	495.19 ± 1.1
413.24 K, 24998 kPa	509.75 ± 1.2
413.24 K, 30000 kPa	521.88 ± 1.3
413.24 K, 34989 kPa	532.32 ± 1.3
413.24 K, 40005 kPa	541.58 ± 1.4
418.24 K, 4381 kPa	356.12 ± 1.1
418.24 K, 4990 kPa	378.2 ± 0.93
418.24 K, 9997 kPa	441.54 ± 0.96
418.24 K, 14996 kPa	469.76 ± 1.1
418.24 K, 20000 kPa	489.3 ± 1.1
418.24 K, 24996 kPa	504.48 ± 1.2
418.24 K, 29999 kPa	517.07 ± 1.3
418.24 K, 34991 kPa	527.85 ± 1.3
418.24 K, 40005 kPa	537.36 ± 1.4
423.24 K, 5017 kPa	354.2 ± 0.85
423.24 K, 9991 kPa	431.88 ± 0.94
423.24 K, 14996 kPa	462.7 ± 1
423.24 K, 20000 kPa	483.36 ± 1.1
423.24 K, 24995 kPa	499.21 ± 1.2
423.24 K, 29997 kPa	512.25 ± 1.3
423.24 K, 34989 kPa	523.35 ± 1.3
423.24 K, 39991 kPa	533.12 ± 1.4
428.24 K, 5020 kPa	318.6 ± 0.92
428.24 K, 9997 kPa	422.29 ± 0.93
428.24 K, 14995 kPa	455.57 ± 1
428.24 K, 19996 kPa	477.35 ± 1.1
428.24 K, 24996 kPa	493.9 ± 1.2
428.24 K, 29993 kPa	507.4 ± 1.2
428.24 K, 34987 kPa	518.87 ± 1.3
428.24 K, 39990 kPa	528.9 ± 1.4
433.24 K, 5019 kPa	257.92 ± 0.99
433.24 K, 9998 kPa	412.15 ± 0.92
433.24 K, 14987 kPa	448.26 ± 1
433.24 K, 19989 kPa	471.28 ± 1.1
433.24 K, 24994 kPa	488.57 ± 1.2
433.24 K, 29992 kPa	502.55 ± 1.2
433.24 K, 34997 kPa	514.38 ± 1.3
433.24 K, 40003 kPa	524.73 ± 1.4
438.24 K, 5011 kPa	195.21 ± 0.84
438.24 K, 9986 kPa	401.49 ± 0.92
438.24 K, 14995 kPa	440.85 ± 0.99
438.24 K, 19991 kPa	465.16 ± 1.1
438.24 K, 24999 kPa	483.18 ± 1.2
438.24 K, 29997 kPa	497.7 ± 1.2
438.24 K, 35010 kPa	509.95 ± 1.3
438.24 K, 39994 kPa	520.5 ± 1.4
443.24 K, 5018 kPa	165.31 ± 0.7
443.24 K, 14986 kPa	433.23 ± 0.97
443.24 K, 20005 kPa	458.99 ± 1.1
443.24 K, 24988 kPa	477.7 ± 1.1
443.24 K, 30010 kPa	492.78 ± 1.2
443.24 K, 35012 kPa	505.33 ± 1.3
443.24 K, 39996 kPa	516.19 ± 1.4
443.25 K, 9990 kPa	390.35 ± 0.91
448.24 K, 5018 kPa	148 ± 0.66
448.24 K, 14981 kPa	425.58 ± 0.95
448.24 K, 19992 kPa	452.7 ± 1.1
448.24 K, 24997 kPa	472.33 ± 1.1
448.24 K, 29998 kPa	487.86 ± 1.2
448.24 K, 34998 kPa	500.83 ± 1.3
448.24 K, 39998 kPa	512 ± 1.4
448.25 K, 9991 kPa	378.84 ± 0.89
453.24 K, 5018 kPa	136.35 ± 0.64
453.24 K, 14996 kPa	418.01 ± 0.94
453.24 K, 19984 kPa	446.42 ± 1
453.24 K, 24987 kPa	466.88 ± 1.1
453.24 K, 29994 kPa	482.99 ± 1.2
453.24 K, 34990 kPa	496.33 ± 1.3
453.24 K, 40001 kPa	507.8 ± 1.4

Conditions	vapor or sublimation pressure [kPa]
395.35 K	2678.7 ± 8.9
403.65 K	3085.8 ± 10
409.68 K	3413.2 ± 11
415.36 K	3739.2 ± 12
